The results in this text go back to ChEMBL document CHEMBL4808173, “Discovery of Novel Benzimidazole and Indazole Analogues as Tubulin Polymerization Inhibitors with Potent Anticancer Activities” (J Med Chem, 2021).

Common to all, as to assay type: functional, cell-based
One test relates to MCF7. In words: Antiproliferative activity against human MCF7 cells assessed as reduction in cell viability measured after 48 hrs by MTT assay. As to conditions: MCF7, 48 h. (In general: Tetrazolium assays rely on reduction of a dye to a coloured formazan, in cell work by metabolically active cells.)
The subject of a further test is A549. The test is described as follows: Antiproliferative activity against human A549 cells assessed as reduction in cell viability measured after 48 hrs by MTT assay. The conditions noted are these: A549, 48 h.
Another test has as its system B16-F10. The test is described as follows: Antiproliferative activity against mouse B16-F10 cells assessed as reduction in cell viability measured after 48 hrs by MTT assay. As to conditions: B16-F10, 48 h.
In another test the test system is HeLa. In words: Antiproliferative activity against human HeLa cells assessed as reduction in cell viability measured after 48 hrs by MTT assay.

One may read the IC50 as the point on the concentration scale where inhibition reaches its midpoint. For the molecule `COc1cc(-c2ccnc3cc(-c4ccc(S(C)(=O)=O)cc4)nn23)cc([Se]C)c1OC`, the IC50 with MCF7 came out at 3.16 µM; in the test with A549, 6.98 µM; in the test with B16-F10, 8.52 µM; with HeLa, 8.52 µM.
In the case of `COc1cc(-c2cccc3[nH]c(-c4ccc5c(ccn5C)c4)nc23)cc(OC)c1OC`, the IC50 came to 0.7 µM with MCF7, 2.6 µM in the test with A549, 0.746 µM in the test with B16-F10 and 1.54 µM in the test with HeLa.
Take `COc1cc(-c2n[nH]c3ccc(-c4ccc(F)cc4)cc23)cc(OC)c1OC`: the IC50 in the test with MCF7 was determined as 0.606 µM; in the test with A549, 0.759 µM; in the test on B16-F10, 0.635 µM; in the test with HeLa it was 0.926 µM.
For `COc1cc(-c2ccc3[nH]nc(-c4ccc(C)cc4)c3c2)cc(OC)c1OC` the same measures were more than 10 µM, more than 10 µM, more than 10 µM and more than 10 µM.
For `COc1cc(-c2n[nH]c3ccc(-c4ccc5c(cnn5C)c4)cc23)cc(OC)c1OC` the same measures were 0.36 µM, 6.22 µM, 2.62 µM and 2.02 µM.
